Measurements reported in patent publication US20030143645A1, “Quinone reductase 2 and aldehyde dehydrogenase as therapeutic targets” (priority 2001, published 2003).
Where two headings read alike, the source gives them in different places. Blank lines part the entries; values can stand above or below the molecule they belong to.

How the values were obtained:
QR2 [1] = molecular target: T1, QR2 (Homo sapiens, UniProt P16083); assay: QR2 activity assay with recombinant QR2 (Example 2); assay type: biochemical; set-up: GST (N, cleaved yes); made in house; E. coli only by inference
T1 sequence (P16083 1-231): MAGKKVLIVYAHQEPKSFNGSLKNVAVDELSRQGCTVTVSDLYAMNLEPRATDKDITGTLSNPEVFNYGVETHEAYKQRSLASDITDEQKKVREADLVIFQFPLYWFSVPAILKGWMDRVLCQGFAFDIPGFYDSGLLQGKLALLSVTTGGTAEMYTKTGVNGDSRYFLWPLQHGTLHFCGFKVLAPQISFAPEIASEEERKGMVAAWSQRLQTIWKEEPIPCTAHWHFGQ
Procedure: Cloning of human QR2. Human QR2 was PCR amplified from human liver cDNA (Clontech) with the following primers: 5′[…]-3′ and 5′-[…]-3′ and cloned into the pGEX-4T-2 GST expression vector (Pharmacia). GST-tagged QR2 was purified and the GST tag removed according to the manufacturers instructions.
(§1) ALDH1, QR2 and QR1 activity assays. […] Reaction products were separated with a gradient of acetonitrile in 10 mM triethylamine acetic acid. […] QR1 IC50 values were calculated using GraphPad Prism.

QR1 = QR1 (Oryctolagus cuniculus, UniProt U3KNP2); assay: QR1 activity assay (Example 2); assay type: biochemical, rabbit; set-up: QR1 was purified from rabbit liver as previously described; from tissue; host or cells: rabbit liver
Chain of QR1 (U3KNP2 1-274): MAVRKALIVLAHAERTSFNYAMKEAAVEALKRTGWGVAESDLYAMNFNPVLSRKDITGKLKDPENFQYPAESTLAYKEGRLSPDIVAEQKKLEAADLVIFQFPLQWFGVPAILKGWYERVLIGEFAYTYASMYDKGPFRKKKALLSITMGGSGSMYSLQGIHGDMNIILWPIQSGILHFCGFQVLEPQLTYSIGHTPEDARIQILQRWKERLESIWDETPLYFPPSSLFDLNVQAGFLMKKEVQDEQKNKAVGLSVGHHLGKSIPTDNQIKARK
Procedure: Purification of native ALDH1, QR2 and QR1. RBC extract was prepared as described above and applied to PQ-Sepharose equilibrated in buffer A. ALDH1 and QR2 were obtained by eluting the column with 5 mM b-NAD^+ and NMeH respectively.
as §1

[2] = system: purine binding proteome (hALDH1 and hQR2); assay: ATP affinity array / ATP-Sepharose displacement elution of RBC purine binding proteome; set-up: species or system human; settings: for proteins eluted from ATP-Sepharose (ALDH1 55 kDa, QR2 26 kDa): RBC extract, 5 mM drug (Example 2); for proteins eluted from ATP affinity array (hALDH1 and hQR2): non-infected red cells, drug at [mM]
Procedure: ATP-affinity array chromatography. In whole mouse experiments, the animal (except for its tail, feet, skin and intestines) was frozen in liquid N2 and blended in buffer A containing 50 mM Hepes, pH 7.5, 50 mM NaCl, 10 mM MgCl2, 0.1% NONIDET- P40, 1 mM dithiothreitol, 1 μg/ml leupeptin, 100 μg/ml pefabloc and 10 μg/ml aprotinin. Mouse lysate was clarified by centrifugation for 1 hr at 100,000×g. For infected and non-infected RBC's˜1.5×10^9 cells were mixed with an equal volume of 2×buffer A, rocked for 30 min at 4° C., and clarified by centrifugation for 1 hr at 100,000×g. Supernatants were dialyzed overnight against 50 mM Hepes, pH 7.5, 50 mM NaCl, 10 mM MgCl2 and 1 mM dithiothreitol. […] Proteins were resolved by 12% SDS-PAGE and visualized by staining either with Coomassie brilliant Blue R-250 or silver nitrate. Alternatively, proteins were transferred to membrane GeneMate (Kaysville, Utah) in transfer buffer (25 mM Tris, 200 mM glycine, 20% methanol, and 0.01% SDS) for mixed peptide sequencing (Damer et al, J. Biol. Chem. 273:24396 (1998)). hALDH 1 and hQR2 purification and activity assays. Fresh human red blood cells (RBC) were obtained from Valley Biomedical, washed twice with PBS, and lysed in buffer B (0.1% Triton X, 50 mM Tris pH 7.5, 125 mM NaCl, 1 μg/mL aprotonin, 1 μg/mL pepstatin and 10 μg/mL PEFABLOC). Lysates were centrifuged twice at 125,000×g for 1 hr at 4° C. Cleared supernatant was filtered through a […] filter and loaded onto PQ-Sepharose. Pure hALDH was eluted with 5 mM NADH and pure hQR2 with 5 mM NMeN. The eluants were dialyzed overnight at 4° C. against 25 mM Tris pH 8.0 and 1 mM DTT. hALDHl was assayed as described in Table 2. Purified hQR2 was assayed at 22° C. in 100 μM N-methyldihydronicotinamide, 30 μM menadione, 0.1% Triton X-100, 50 mM Tris pH 8.5, 100 μM dicoumarol (unless stated otherwise). N-methyldihydronicotinamide was synthesized (Ortiz-Maldonado et al, Biochemistry 38(50):16636-16647 (1999)) and stored in 100 mM Tris-sulfate pH 8.0.
An ATP affinity array was charged with RBC and P. falciparum (blood stage) infected RBC extract.
chromatography. P. falciparum-infected or non-infected RBCs were lysed by mixing with an equal volume of 2×buffer A and rocking for 30 min at 4° C. 1×buffer A: 50 mM Hepes, pH 7.5, 50 mM NaCl, 10 mM MgCl2, 0.1% NONIDET-P40, 1 mM dithiothreitol, 1 μg/ml leupeptin, 100 μg/ml pefabloc and 1 μg/ml aprotinin. […] Proteins were resolved by 12% SDS-PAGE and visualized by staining with Coomassie brilliant blue R-250 or silver nitrate. Alternatively, proteins were transferred to PVM membrane (Kaysville, Utah) for mixed peptide sequencing (Damer et al, J. Biol. Chem. 273(38):24396-24405 (1998)).
To better understand the mechanism of the quinolines, an attempt was made to identify all quinoline interacting proteins in a cell or animal lysate. To achieve this, a functional proteomics approach was used as outlined in FIG. 7. In this strategy, three different, yet complementary approaches were conducted to identify and validate targets of the quinolines. In step one, termed displacement affinity chromatography, a specific sub-proteome from a cell is captured on an affinity matrix by virtue of its interaction with an immobilized ligand (FIG. 7, Step 1). The sup-proteome is captured after application of saturating amounts of cell lysate and extensive washing of the resin. The compounds of interest (in this case, the quinolines) are then applied to the matrix in parallel and allowed to interact with the bound proteome. […] In the second step, affinity matrices were created by directly linking the quinoline drugs to Sepharose, and after application of cell lysates, all proteins that specifically eluted from these matrices in the presence of drug were identified (FIG. 7 Step 2).

QR2 [3] = molecular target: T1, QR2; assay: hQR2 activity assay, enzyme purified from human RBC (Example 1); assay type: biochemical; set-up: Pure hALDH was eluted with 5 mM NADH and pure hQR2 with 5 mM NMeN; tissue Valley Biomedical (blood); host or cells: human red blood cells
Procedure: ATP-affinity array chromatography. In whole mouse experiments, the animal (except for its tail, feet, skin and intestines) was frozen in liquid N2 and blended in buffer A containing 50 mM Hepes, pH 7.5, 50 mM NaCl, 10 mM MgCl2, 0.1% NONIDET- P40, 1 mM dithiothreitol, 1 μg/ml leupeptin, 100 μg/ml pefabloc and 10 μg/ml aprotinin. Mouse lysate was clarified by centrifugation for 1 hr at 100,000×g. For infected and non-infected RBC's˜1.5×10^9 cells were mixed with an equal volume of 2×buffer A, rocked for 30 min at 4° C., and clarified by centrifugation for 1 hr at 100,000×g. Supernatants were dialyzed overnight against 50 mM Hepes, pH 7.5, 50 mM NaCl, 10 mM MgCl2 and 1 mM dithiothreitol. […] Lysates were centrifuged twice at 125,000×g for 1 hr at 4° C. […] Pure hALDH was eluted with 5 mM NADH and pure hQR2 with 5 mM NMeN. The eluants were dialyzed overnight at 4° C. against 25 mM Tris pH 8.0 and 1 mM DTT. hALDHl was assayed as described in Table 2. Purified hQR2 was assayed at 22° C. in 100 μM N-methyldihydronicotinamide, 30 μM menadione, 0.1% Triton X-100, 50 mM Tris pH 8.5, 100 μM dicoumarol (unless stated otherwise).
For QR2 Kd apparent values determined using the expression [formula]
The Kd was determined as [formula]
Where Ao=rate in the absence of drug; Aapp=rate+drug; [M]=concentration of menadione.

[4] = system: Plasmodium falciparum strain 3D7; assay: P. falciparum growth by (3H)hypoxanthine uptake; assay type: cell-based; settings: in vitro
Procedure: Plasmodium cultures. Plasmodium falciparum strain 3D7 was obtained from the MR4/ATCC and grown according to the included specifications. Parasites were harvested by saponin lysis as previously described (Schlichtherle et al (eds) Methods in Malaria Research 77(MR4/ATCC, Manasas, Va. 2000). P. falciparum growth was measured by (^3H)hypoxanthine uptake as previously described (Schlichtherle et al (eds) Methods in Malaria Research 77(MR4/ATCC, Manasas, Va. 2000).
To determine the contribution of QR2 or ALDH1 inhibition to the antimalarial properties of the quinolines, known inhibitors of QR2 or ALDH1 were added to P. falciparum and its growth was measured. Known inhibitors of P. falciparum growth all had IC50 values in agreement with the literature (FIG. 12A). […] The explanation for this finding is likely to be related to the abilities of the drugs to penetrate the plasma membrane or their ability to become concentrated within P. falciparum infected RBCs.

malaria infection = assay: cell-based assays of infection
[5] = substrate: CC1=CC(=O)c2ccccc2C1=O; assay: hQR2 activity assay, enzyme purified from human RBC (Example 1); assay type: biochemical; settings: 22.0 °C
[6] = recombinant QR2, 50 μM NMeH, 5-30 μM menadione, read-out: QR2 K1 (μM) ± SEM
[7] = QR1 purified from rabbit liver, read-out: QR1 IC50 (μM) ± SEM

inhibition of QR2 activity (QR2 [1]): less potent inhibitors
Ki (QR2 [1]; [6]): 252 ± 50 µM
IC50 (QR1; [7]): 9.6 ± 0.8 µM
Molecule: C=C[C@H]1C[N@@]2CC[C@H]1C[C@H]2[C@H](O)c1ccnc2ccc(OC)cc12 [Q, quinine]

Molecule: COc1cc(NC(C)CCCN)c2ncccc2c1 (stereo not shown) [PQ, primaquine]
proteins eluted from ATP-Sepharose (ALDH1 55 kDa, QR2 26 kDa) [2]: selectively eluted proteins of 55 and 26 kDa
proteins eluted from ATP affinity array (hALDH1 and hQR2) [2]: selectively eluted two proteins
Ki (QR2 [1]): 1.04 ± 0.38 µM
inhibition of QR2 activity (QR2 [1]): potent inhibitors
Kd (QR2 [3]): 9.3 µM
IC50 (QR1): 124 ± 10 µM
effect on QR1 activity (QR1): weakly inhibited

Molecule: O=c1c(O)c(-c2ccc(O)c(O)c2)oc2cc(O)cc(O)c12 [quercetin]
IC50 ([4]; Plasmodium falciparum): 81.8 µM

elution of hQR2, hALDH1 or any other protein from ATP affinity array ([2]; infected or non infected red cell extract): did not elute
Molecule: Nc1ccc(S(=O)(=O)c2ccc(N)cc2)cc1 [dapsone]

IC50 ([4]; Plasmodium falciparum): 53.8 µM
Molecule: O=c1cc(-c2ccccc2)oc2cc(O)cc(O)c12 [chrysin]

proteins eluted from ATP affinity array (hALDH1 and hQR2) [2]: selectively eluted two proteins
Kd (QR2 [3]; purified hQR2 from human RBC, menadione substrate, read-out: Kd(app)): 0.81 µM
Molecule: Cc1cc(N)c2ccccc2n1 [4AQ, 4 amino quinaldine]

Molecule: CCN(CC)CCCC(C)Nc1c2ccc(Cl)cc2nc2ccc(OC)cc12 (stereo not shown) [QC, Quinacrine]
Ki (QR2 [1]): 0.51 ± 0.11 µM
inhibition of QR2 activity (QR2 [1]): potent inhibitors
effect on QR1 activity (QR1): not affected
IC50 (QR1; [7]): > 1000 µM

Molecule: CCN(CC)c1ccc(C=O)cc1 [DEAB, diethylaminobenzaldehyde]
IC50 [4]: 277 µM
antimalarial activity (malaria infection): have antimalarial activity

Molecule: OC(c1cc(C(F)(F)F)nc2c(C(F)(F)F)cccc12)C1CCCCN1 (stereo not shown) [MQ, mefloquine]
proteins eluted from ATP-Sepharose (ALDH1 55 kDa, QR2 26 kDa) [2]: selectively eluted proteins of 55 and 26 kDa
proteins eluted from ATP affinity array (hALDH1 and hQR2) [2]: selectively eluted two proteins
inhibition of QR2 activity (QR2 [1]): less potent inhibitors
Ki (QR2 [1]; [6]): 17 ± 4 µM
effect on QR1 activity (QR1): weakly inhibited
IC50 (QR1; [7]): 616 ± 60 µM

B1: hQR2 (Homo sapiens) (protein)
chain: T1 sequence (P16083 1-231)
notes: Pure hALDH was eluted with 5 mM NADH and pure hQR2 with 5 mM NMeN; tissue Valley Biomedical (blood); host or cells: human red blood cells
Km [5]: 14 µM
